In article PMC9780888, “4-Isobutylmethcathinone—A Novel Synthetic Cathinone with High In Vitro Cytotoxicity and Strong Receptor Binding Preference of Enantiomers” (Pharmaceuticals, 2022):
Counter-ions that a name gives are not always drawn. Like-named read-outs stand apart in the source and are kept apart here.

Assays:
Assay type in all cases: cell-based, human
HEK 293T = assay: WST-1 viability assay, HEK 293T cells
Description: (§1) Based on the novelty of the IMBcat compound, we aimed to evaluate its in vitro cytotoxicity in selected model cell lines as well as to determine the toxicity of the IBMcat enantiomers, since both the chemical structure and chirality of compounds could play a role in their bioactivity (Table 2). The cytotoxic profile of the IBMcat was determined by a WST-1 viability assay after 72-h treatment. For this purpose, cell lines derived from distinct tissues, often affected by NPSs, were chosen, i.e., cells of kidney, hepatic, neural, urinary, and intestinal origin as well as keratinocytes and primary fibroblasts (HEK 293T, Hep G2, HMC-3, SH-SY5Y, 5637, CaCo-2, HaCaT, MRC-5, and BJ, respectively). The cytotoxicity of IBMcat and its enantiomers was concentration- and cell-line dependent, the IC50 values, which were in the micromolar range, are given in Table 2. […] This was followed by embryonic kidney cells HEK 293T (immortalized), in which the toxicity ranged between a concentration of 123 and 192 µM.
In this study, the following cell lines were used: HEK 293T, Hep G2, HMC-3, SH-SY5Y, 5637, CaCo-2, HaCaT, MRC-5, BJ, and L929. The cells lines were of the following origin: human embryonic immortalized kidney cells (HEK 293T), cells from hepatocellular carcinoma (Hep G2), microglial immortalized cells (HMC-3), cells from neuroblastoma (SH-SY5Y), the urinary bladder carcinoma (5637), colon carcinoma (CaCo-2), immortalized keratinocytes (HaCaT), noncancerous lung fibroblasts (MRC-5), fibroblasts from the foreskin (BJ) and mouse immortalized fibroblasts (L929; frequently used for cytotoxicity evaluation). The selected cell lines were chosen so that not only primary noncancerous cells are evaluated but also cells derived from tissues, which are the most often affected by novel synthetic drugs, i.e., kidney, liver, urinary bladder, and nervous tissue. Except for L929 and MRC-5 which were supplied by Sigma-Aldrich, the rest of the cell lines were purchased from the American Tissue Culture Collection (ATCC). […]
(§2) The cytotoxicity of IBMCat was evaluated in vitro by using a WST-1 viability assay (Sigma-Aldrich, Saint Louis, MO, USA) based on the transformation of a tetrazolium salt into colored formazan in metabolically active cells. […] After 72 h of additional incubation of the cells, their viability was determined by WST-1. […] The cells were incubated for 2 h, after which absorbance of the raised formazan was measured spectrophotometrically at 450 nm (reference wavelength of 630 nm) using a UV-Vis spectrometer (Bio-Rad Laboratories, Hercules, CA, USA). […] The half-maximal inhibitory concentrations (IC50) were calculated from the measured dose–response curves by AAT Bioquest.

Hep G2 = assay: WST-1 viability assay, Hep G2 cells; details: Hep G2, 72 h incubation, WST-1, four replicates
Description: as §1
(§3) In this study, the following cell lines were used: HEK 293T, Hep G2, HMC-3, SH-SY5Y, 5637, CaCo-2, HaCaT, MRC-5, BJ, and L929. […] The selected cell lines were chosen so that not only primary noncancerous cells are evaluated but also cells derived from tissues, which are the most often affected by novel synthetic drugs, i.e., kidney, liver, urinary bladder, and nervous tissue. […]
as §2

HMC-3 = assay: WST-1 viability assay, HMC-3 cells; details: HMC-3, 72 h incubation, WST-1, four replicates
Description: as §1, §3, §2

5637 = assay: WST-1 viability assay, 5637 cells; details: 5637, 72 h incubation, WST-1, four replicates
Description: as §1, §3, §2

HaCaT = assay: WST-1 viability assay, HaCaT cells; details: 72 h incubation, WST-1, four replicates
Description: as §1, §3, §2

[1] = Homo sapiens, 72 h incubation, WST-1, four replicates, read-out: IC50 ± SD

| SMILES | IC50 (HEK 293T; Homo sapiens, 72 h, racemate and enantiomers, read-out: toxicity (IC50) range) | IC50 (HEK 293T; [1]) | IC50 (Hep G2; Homo sapiens, HepG2) | IC50 (HMC-3; Homo sapiens, HMC3) | IC50 (5637; Homo sapiens) | IC50 (HaCaT; Homo sapiens) | IC50 (HEK 293T; 72 h incubation, WST-1, four replicates, read-out: IC50 ± SD) | IC50 (Hep G2) | IC50 (HMC-3) | IC50 5637 | IC50 (HaCaT) |
| --- | --- | --- | --- | --- | --- | --- | --- | --- | --- | --- | --- |
| CNC(C)C(=O)c1ccc(CC(C)C)cc1.Cl (stereo not shown) [IBMcat, 4-isobutylmethcathinone hydrochloride] | 123 to 192 µM | 123 ± 6 µM | 52 ± 7 µM | 61 ± 2 µM | 18 ± 1 µM | 357 ± 40 µM | – | – | – | – | – |
| CN[C@H](C)C(=O)c1ccc(CC(C)C)cc1 [R-IBMCat] | – | – | – | – | – | – | 185 ± 5 µM | 49 ± 1 µM | 65 ± 2 µM | 20 ± 1 µM | 329 ± 43 µM |
| CN[C@@H](C)C(=O)c1ccc(CC(C)C)cc1 [S-IBMCat, (S)-4-isobutylmethcathinone hydrochloride] | – | 192 ± 2 µM | 46 ± 9 µM | 64 ± 1 µM | 21 ± 4 µM | 361 ± 22 µM | – | – | – | – | – |
